Assays:
Type in all cases: in vivo
[1] = test system: Echinochloa crus-galli (ECHCG); assay: Biological Example 2 (Test 109): visual herbicidal damage to flooded ECHCG; conditions: EC050, into flood water, 14 days after application
Method: (§1) Rice seeds, variety IR-64, were sown in seed trays, after 7 days they were transplanted as 3 groups of 2 plants, into pots containing a standard sandy loam soil saturated with water replicating swampy conditions. These were grown on for 9 days in a glasshouse bay (30/20° C. day/night; 18/6 hours light/dark; 75% humidity). Approx 10-20 seeds of Echinochloa crus-galli were sown into pots 13 days prior to application, in the same conditions as the rice. All pots were flooded to 2-3 cm water depth the day prior to application. Growth stages at time of application were: Rice: 2-3 leaves, ECHCG: 2-3 leaves.
(§2) The test solutions were prepared by mixing the appropriate aliquots of the test substance (here, compound A-13 as the EC050 Formulation Example 1 disclosed herein) in de-ionised water to give the desired treatment concentration.
(§3) Application was made by pipetting the required amount of the test solution gently into the flood water of the appropriate pot.
(§4) The test plants were grown on in the same glasshouse conditions, and watered twice daily keeping the flood water at a depth of 2-3 cm.
(§5) A visual assessment of the % herbicidal damage was made 14 days after application (0=no damage to plants, 100=total kill).

[2] = test system: Echinochloa colona (ECHCO); assay: Biological Example 4 (Test 110): dry seeded rice (DSR) method, ECHCO damage; conditions: for DSR ECHCO 0.5lf % herbicidal damage / DSR ECHCO 3lf % herbicidal damage: EC050 + 0.2% Adsee, foliar spray, 14 days after application; for DSR ECHCO 0.5lf % herbicidal damage: 0.5 leaf stage; for DSR ECHCO 3lf % herbicidal damage: 3 leaf stage
Method: Echinochloa colona (ECHCO) seeds were sown in seed trays containing a standard sandy loam soil. They were sown at intervals to achieve plants at 0-0.5 leaf and 2-3 leaves at the time of application. Irrigation occurred to maintain the soil at moist but not saturated conditions. Glasshouse bay conditions were 30/20° C. day/night; 18/6 hours light/dark; 75% humidity.
(§6) The test solutions were prepared by mixing the appropriate aliquots of the test substance (here, compound A-13 as EC050 Formulation Example 1) and adjuvant (0.2% Adsee as adjuvant) in de-ionised water to give the desired treatment concentration.
Application was as a foliar spray, made using a tracksprayer.
The test plants were grown on in the same glasshouse conditions, and watered to maintain moist conditions.
(§7) No. of repetitions: 1 test only.
as §5

IR-64 rice [3] = assay: Biological Example 4 (Test 110): wet seeded rice (WSR) method, IR-64 rice damage; conditions: for WSR Rice IR-64 % herbicidal damage: EC050 + 0.2% Adsee, foliar spray, 14 days after application
Source text: (§8) Rice seeds varieties IR-64 and Arborio, Echinochloa crus-galli (ECHCG), and Leptochloa chinensis (LEFCH) were sown in seed trays containing a standard sandy loam soil saturated with water replicating swampy conditions. They were sown at intervals to achieve plants at the following growth stages at time of application: IR-64 and Arborio rice: from 3 leaves on the main stem to tillering; ECHCG: at two different leaf stages: 0-0.5 leaf and 2-3 leaf; LEFCH: 3 leaf. Glasshouse bay conditions were 30/20° C. day/night; 18/6 hours light/dark; 75% humidity.
as §6
(§9) Application was as a foliar spray, made using a tracksprayer. 3 days after application the trays were flooded to 2-3 cm water depth, and maintained at this level for the duration of the test.
as §7, §5

Koshihikari rice [4] = assay: Biological Example 4 (Test 110): transplanted (TPR) method, rice damage; conditions: for Transplanted Rice Koshihikari % herbicidal damage: 14 days after application
Method: as §1, with “variety Koshihikari,” for “variety IR-64,”, “bay 30/20°” for “bay (30/20°”, “ECHCG: 4” for “ECHCG: 2-3”, “leaves. The test solutions were prepared by mixing the appropriate aliquots of the test substance (here, compound A-13 as EC050 Formulation Example 1) in de-ionised water to give the desired treatment concentration.” for “leaves.”
as §3, §4, §7, §5

Arborio rice = assay: Biological Example 4 (Test 110): wet seeded rice (WSR) method, Arborio rice damage; conditions: EC050 + 0.2% Adsee, foliar spray, 14 days after application
Source text: as §8, §6, §9, §7, §5

[5] = test system: Echinochloa crus-galli (ECHCG); assay: Biological Example 4 (Test 110): wet seeded rice (WSR) method, ECHCG damage; conditions: for WSR ECHCG 0.5lf % herbicidal damage / WSR ECHCG 3lf % herbicidal damage: EC050 + 0.2% Adsee, foliar spray, 14 days after application; for WSR ECHCG 0.5lf % herbicidal damage: 0.5 leaf stage; for WSR ECHCG 3lf % herbicidal damage: 3 leaf stage
Source text: as §8, §6, §9, §7, §5

Koshihikari rice [6] = assay: Biological Example 3 (Test 120): damage to flooded transplanted rice; conditions: for Koshihikari rice % herbicidal damage, Mean of 2 repetitions / Koshihikari rice % herbicidal damage, Repetition A / Koshihikari rice % herbicidal damage, Repetition B / rice phytotoxicity (span of the 2 repetitions): EC050, 14DAA; for rice phytotoxicity (span of the 2 repetitions): Koshihikari
Method: as §1, with “Koshihikari,” for “IR-64,”, “clay” for “sandy loam”, “leaves;” for “leaves,”
as §2, §3, §4, §5

IR-64 rice [7] = assay: Biological Example 2 (Test 109): damage to flooded transplanted rice; conditions: for IR-64 rice % herbicidal damage: EC050, into flood water, 14 days after application
Method: as §1, §2, §3, §4, §5

IR-64 rice [8] = assay: Biological Example 1 (Test 125): damage (phytotoxicity) to flooded transplanted rice; conditions: alone or in tested mixtures; A-4 mixtures especially at higher application rates of compound A-4
Source text: Rice seeds, variety IR-64 (an indica type of rice), were sown in seed trays. After 7 days the resulting plants were transplanted as 3 groups of 2 plants, into pots containing a standard sandy loam soil saturated with water replicating swampy conditions. […] Leptochloa chinensis (LEFCH) and Echinochloa crus-galli (ECHCG) were sown as 2 separate groups of approx 10-20 seeds into pots 13 days prior to application of the test substances, in the same glasshouse conditions as the rice. Therefore, each pot of weeds contained a group of LEFCH and a separate group of ECHCG. All pots of rice and all pots of weeds were flooded to 2-3 cm water depth the day prior to application of the test substances. Growth stages at time of application were as follows: Rice: from 2 leaves on the main stem up to tillering; ECHCG: from 2 leaves on the main stem up to tillering; LEFCH: 2-3 leaves.
Most of the test substances were used as formulated products. […] Imazosulfuron (a comparator co-herbicide) was applied as a GR0.25 formulation (GR=granule).
Application of the test substances was made by pipetting the required amount of the test solution or the test formulation gently into the flood water of the appropriate pot.
The test plants were then grown on in the same glasshouse conditions, and watered twice daily keeping the flood water at a depth of 2-3 cm. […]

## CC1(C)OC(C)(C)C(O)=C(c2cc(-c3ccc(Cl)cc3F)ccc2C2CC2)C1=O [compound A-13, 4-(4′-Chloro-4-cyclopropyl-2′-fluorobiphenyl-3-yl)-2,2,6,6-tetramethylpyran-3,5-dione]
[1]; 60 g/ha
  ECHCG % herbicidal damage: 68%
[1]; 120 g/ha
  ECHCG % herbicidal damage: 90%
[1]; 240 g/ha
  ECHCG % herbicidal damage: 98%
[2]; 8 g/ha
  DSR ECHCO 0.5lf % herbicidal damage: 0%
  DSR ECHCO 3lf % herbicidal damage: 85%
[2]; 60 and 125 g/ha, 2 growth stages, 0.5 leaf and 3 leaf, dry seeded rice method
  DSR weed control, in words: controlled
[2]; 60 g/ha
  DSR ECHCO 0.5lf % herbicidal damage: 90%
  DSR ECHCO 3lf % herbicidal damage: 100%
[2]; 125 g/ha
  DSR ECHCO 0.5lf % herbicidal damage: 90%
  DSR ECHCO 3lf % herbicidal damage: 100%
[2]; 500 g/ha
  DSR ECHCO 0.5lf % herbicidal damage: 90%
  DSR ECHCO 3lf % herbicidal damage: 100%
IR-64 rice [3]; 8 g/ha
  WSR Rice IR-64 % herbicidal damage: 0%
IR-64 rice [3]; 60 g/ha
  WSR Rice IR-64 % herbicidal damage: 0%
IR-64 rice [3]; 125 g/ha
  WSR Rice IR-64 % herbicidal damage: 5%
IR-64 rice [3]; 500 g/ha
  WSR Rice IR-64 % herbicidal damage: 35%
IR-64 rice [3]; Biological Example 4, wet seeded rice, 60 and 125 g/ha
  selectivity margin between rice and ECHCG: good selectivity margin
Koshihikari rice [4]; 60 g/ha, EC050, into flood water
  Transplanted Rice Koshihikari % herbicidal damage: 15%
Koshihikari rice [4]; 125 g/ha, EC050 into flood water
  Transplanted Rice Koshihikari % herbicidal damage: 20%
Koshihikari rice [4]; 500 g/ha, EC050 into flood water
  Transplanted Rice Koshihikari % herbicidal damage: 60%
Koshihikari rice [4]; Biological Example 4, transplanted rice, 125 g/ha
  selectivity margin between rice and ECHCG: certain selectivity margin
Arborio rice; 8 g/ha
  WSR Rice Arborio % herbicidal damage: 0%
Arborio rice; 60 g/ha
  WSR Rice Arborio % herbicidal damage: 0%
Arborio rice; 125 g/ha
  WSR Rice Arborio % herbicidal damage: 0%
Arborio rice; 500 g/ha
  WSR Rice Arborio % herbicidal damage: 60%
[5]; 8 g/ha
  WSR ECHCG 0.5lf % herbicidal damage: 45%
  WSR ECHCG 3lf % herbicidal damage: 65%
[5]; 60 and 125 g/ha, 2 growth stages, 0.5 leaf and 3 leaf, wet seeded rice method
  WSR ECHCG control: 90-100%
[5]; 60 g/ha
  WSR ECHCG 0.5lf % herbicidal damage: 90%
  WSR ECHCG 3lf % herbicidal damage: 100%
[5]; 125 g/ha
  WSR ECHCG 0.5lf % herbicidal damage: 100%
  WSR ECHCG 3lf % herbicidal damage: 100%
[5]; 500 g/ha
  WSR ECHCG 0.5lf % herbicidal damage: 100%
  WSR ECHCG 3lf % herbicidal damage: 100%
Koshihikari rice [6]; 125 g/ha
  Koshihikari rice % herbicidal damage, Mean of 2 repetitions: 13%
  Koshihikari rice % herbicidal damage, Repetition A: 10%
  Koshihikari rice % herbicidal damage, Repetition B: 15%
  rice phytotoxicity (span of the 2 repetitions): 10-15%
Koshihikari rice [6]; 250 g/ha
  Koshihikari rice % herbicidal damage, Mean of 2 repetitions: 20%
  Koshihikari rice % herbicidal damage, Repetition A: 20%
  Koshihikari rice % herbicidal damage, Repetition B: 20%
Koshihikari rice [6]; 500 g/ha
  Koshihikari rice % herbicidal damage, Mean of 2 repetitions: 25%
  Koshihikari rice % herbicidal damage, Repetition A: 20%
  Koshihikari rice % herbicidal damage, Repetition B: 30%
  rice phytotoxicity (span of the 2 repetitions): 20-30%
Koshihikari rice [6]; Biological Example 3, 125 g/ha vs 500 g/ha
  selectivity margin for use on rice (Koshihikari vs ECHCG): reasonable selectivity margin
IR-64 rice [7]; 120 g/ha
  IR-64 rice % herbicidal damage: 5%
IR-64 rice [7]; 240 g/ha
  IR-64 rice % herbicidal damage: 18%
IR-64 rice [7]; 360 g/ha
  IR-64 rice % herbicidal damage: 5%
IR-64 rice [7]; Biological Example 2, 120 g/ha
  selectivity margin in rice (IR-64 rice vs ECHCG): good selectivity margin
IR-64 rice [8]
  phytotoxicity (damage) to IR-64 transplanted flooded rice, in words: very low phytotoxicity

Source: patent publication US20130137573A1, “HERBICIDAL COMPOSITIONS COMPRISING, AND METHODS OF USE OF, HERBICIDALLY ACTIVE PYRANDIONES” (priority 2009, published 2013)
